For 31 compounds, inhibition results are on record in ChEMBL document CHEMBL4418495, “Entpd5 inhibitors” (2012).

Assay [1] deals with T1, Nucleoside diphosphate phosphatase ENTPD5 (Homo sapiens) (UniProt O75356).
T1 sequence (whole entry): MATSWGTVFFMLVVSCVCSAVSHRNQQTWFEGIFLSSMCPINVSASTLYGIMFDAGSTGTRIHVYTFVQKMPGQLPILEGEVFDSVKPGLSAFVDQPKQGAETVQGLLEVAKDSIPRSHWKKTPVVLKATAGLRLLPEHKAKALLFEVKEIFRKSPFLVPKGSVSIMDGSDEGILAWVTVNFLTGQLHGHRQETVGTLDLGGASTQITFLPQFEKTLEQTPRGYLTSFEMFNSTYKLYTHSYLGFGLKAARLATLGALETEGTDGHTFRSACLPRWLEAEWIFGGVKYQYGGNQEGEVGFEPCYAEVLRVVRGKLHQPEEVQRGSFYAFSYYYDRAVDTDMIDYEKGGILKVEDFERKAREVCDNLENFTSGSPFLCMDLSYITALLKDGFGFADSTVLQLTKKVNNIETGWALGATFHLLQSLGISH
Kind of assay: Inhibition of human recombinant ENTPD5 expressed in insect cells assessed as reduction in reduction in UDP hydrolysis by measuring inorganic phosphate release incubated for 1 hr by malachite green based assay.

For assay [2], the target named is T1, Nucleoside diphosphate phosphatase ENTPD5 (Homo sapiens). The experiment in a line: Inhibition of human recombinant ENTPD5 expressed in insect cells assessed as reduction in UDP hydrolysis at 1 uM incubated for 1 hr in presence of UMP, GTP and ATP by Escherichia coli UMP kinase pyrH catalyzed UMP phosphorylation coupled luciferase assay.
In assay [3] the target is T2, Uridylate kinase (Escherichia coli (strain K12)) (UniProt P0A7E9).
T2 sequence (whole entry): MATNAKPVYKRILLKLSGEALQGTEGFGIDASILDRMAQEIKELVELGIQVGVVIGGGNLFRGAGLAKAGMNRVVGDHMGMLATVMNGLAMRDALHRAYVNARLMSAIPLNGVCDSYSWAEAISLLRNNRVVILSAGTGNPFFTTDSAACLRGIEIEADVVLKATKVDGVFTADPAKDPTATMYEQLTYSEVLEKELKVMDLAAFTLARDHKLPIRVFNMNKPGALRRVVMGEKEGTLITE
The experiment in a line: Inhibition of recombinant Escherichia coli UMP kinase pyrH catalyzed UMP phosphorylation in presence of GTP and ATP incubated for 1 hr by luminescence based assay.

Assay [4] concerns the target T1, Nucleoside diphosphate phosphatase ENTPD5 (Homo sapiens). The experiment in a line: Inhibition of human recombinant ENTPD5 expressed in insect cells assessed as reduction in UDP hydrolysis up to 10 uM incubated for 1 hr in presence of UMP, GTP and ATP by Escherichia coli UMP kinase pyrH catalyzed UMP phosphorylation coupled luciferase assay.

Calls of active or inactive are those of the source. The rule behind the calls is not given here.

With `O=C1NC(=O)N(c2ccc(Cl)cc2)C(=O)/C1=C/c1cnn(-c2ccccc2)c1`, the inhibition result in assay [1] and in assay [2] was “Active” in each case. The inhibition result in assay [3] is “inactive”. Also, the inhibition result in assay [4] was “Dose-dependent effect”.
As for `O=S(=O)(Nc1ccccc1F)c1ccc2c(c1)[C@@H]1C=CC[C@@H]1[C@@H](c1ccc(F)cc1)N2`, the inhibition entry in assay [1] and in assay [2] was “Active” in each case. In addition, in assay [3], the inhibition entry is “inactive”. The inhibition entry in assay [4] was “Dose-dependent effect”.
`COc1cccc(NC(=S)Nc2ccc3nc(-c4ccco4)c(-c4ccco4)nc3c2)c1`: the inhibition entry in assay [1] and in assay [2] was “Active” each time. The inhibition entry in assay [3] was “inactive”. Besides, in assay [4], the inhibition entry was “Dose-dependent effect”.
With `CC(=O)c1ccc(-c2ccc(C=C3C(=O)N(C)C(=S)N(C)C3=O)o2)cc1`, the inhibition result in assay [1] and in assay [2] was “Active” each time. Besides, the inhibition entry in assay [3] was “inactive”. Moreover, the inhibition result in assay [4] is “Dose-dependent effect”.
On to `COCCNC(=O)Cn1cc(/C=C2\C(=O)NC(=O)N(C3CCCCC3)C2=O)c2ccccc21`, for which the inhibition entry in assay [1] and in assay [2] was “Active” throughout. Also, the inhibition result in assay [3] is “inactive”. Besides, in assay [4], the inhibition result was “Dose-dependent effect”.
In the case of `N#CC1=C(N)n2c(s/c(=C\c3cc(Br)ccc3O)c2=O)=C(C#N)C1c1cc(Br)ccc1O` (centres undefined), the inhibition result in assay [1] and in assay [2] was “Active” throughout. Moreover, the inhibition entry in assay [3] is “inactive”. Moreover, the inhibition result in assay [4] was “Dose-dependent effect”.
For the compound `COc1cc(-c2ccc(/C=C3\SC(=N)N(c4nccs4)C3=O)o2)c(OC)cc1Cl`, the inhibition result in assay [1] and in assay [2] was “Active” throughout. Also, the inhibition result in assay [3] is “inactive”. In addition, the inhibition result in assay [4] was “Dose-dependent effect”.
For `C=CCN(CC(=O)N(Cc1ccc2c(c1)OCO2)Cc1coc2ccc(Cl)cc2c1=O)C(=O)c1cccc2ccccc12`, the inhibition result in assay [1] and in assay [2] was “Active” throughout. In addition, the inhibition result in assay [3] is “inactive”. Further, the inhibition entry in assay [4] was “Dose-dependent effect”.
For `O=C(Nc1nonc1NC(=O)c1sc2cc(Cl)ccc2c1Cl)c1sc2cc(Cl)ccc2c1Cl`, the inhibition result in assay [1] and in assay [2] was “Active” in each case. The inhibition result in assay [3] was “inactive”. Moreover, in assay [4], the inhibition result was “Dose-dependent effect”.
In the case of `O=C1N=C(Nc2cccc(Cl)c2Cl)S/C1=C/c1ccc(OCc2ccc(C(=O)O)cc2)c(Br)c1`, the inhibition result in assay [1] and in assay [2] was “Active” each time. The inhibition entry in assay [3] was “inactive”. Further, the inhibition result in assay [4] is “Dose-dependent effect”.
On to `COc1cc(C2Nc3cccc4cccc(c34)N2)cc(I)c1O`, for which the inhibition result in assay [1] and in assay [2] was “Active” in each case. Further, in assay [3], the inhibition result was “inactive”. Moreover, in assay [4], the inhibition result was “Dose-dependent effect”.
As for `O=C1NC(=S)NC(=O)C1=Cc1cn(-c2ccccc2)nc1-c1ccccc1`, the inhibition entry in assay [1] and in assay [2] was “Active” in each case. Moreover, in assay [3], the inhibition result was “inactive”. Further, the inhibition entry in assay [4] is “Dose-dependent effect”.
Turning to `CC(C)(C)C(=O)Nc1ccc(C(=O)Nc2ccc(-c3nc4ncccc4o3)cc2)cc1`, the inhibition entry in assay [1] and in assay [2] was “Active” each time. The inhibition result in assay [3] was “inactive”. In addition, the inhibition entry in assay [4] was “Dose-dependent effect”.
For the compound `Cc1ccc(-c2csc3nc(SCc4c(C)noc4C)n(-c4ccccc4)c(=O)c23)o1`, the inhibition result in assay [1] and in assay [2] was “Active” each time. For the same compound, in assay [3], the inhibition entry is “inactive”. Further, in assay [4], the inhibition result is “Dose-dependent effect”.
Turning to `COc1cccc(/C=c2/sc3n(c2=O)C(c2cccs2)C2=C(N=3)c3ccccc3CC2)c1O` (centres undefined), the inhibition result in assay [1] and in assay [2] was “Active” each time. For the same compound, the inhibition entry in assay [3] is “inactive”. Besides, in assay [4], the inhibition entry is “Dose-dependent effect”.
Regarding `CCc1ccc(NS(=O)(=O)c2ccc(N3C(=O)c4cc([N+](=O)[O-])cc5cc([N+](=O)[O-])cc(c45)C3=O)cc2)cc1`, the inhibition result in assay [1] and in assay [2] was “Active” in each case. In addition, the inhibition result in assay [3] is “inactive”. In addition, in assay [4], the inhibition result was “Dose-dependent effect”.
Regarding `O=S(=O)(Nc1cc(-c2c(O)ccc3ccccc23)c(O)c2ccccc12)c1ccc(F)cc1`, the inhibition result in assay [1] and in assay [2] was “Active” each time. Moreover, the inhibition entry in assay [3] is “inactive”. In addition, the inhibition entry in assay [4] was “Dose-dependent effect”.
For `COc1cccc(OCCn2cc(/C=C3/C(=N)N4N=C(C(C)C)SC4=NC3=O)c3ccccc32)c1`, the inhibition result in assay [1] and in assay [2] was “Active” throughout. Further, in assay [3], the inhibition result was “inactive”. Besides, in assay [4], the inhibition result is “Dose-dependent effect”.
`C#CCn1cc(/C=C2\C(=O)NC(=S)N(c3ccc(Br)cc3)C2=O)c2ccccc21`: the inhibition result in assay [1] and in assay [2] was “Active” throughout. Besides, in assay [3], the inhibition result was “inactive”. The inhibition entry in assay [4] was “Dose-dependent effect”.
As to `C=CCN(CC(=O)Nc1cc(C)on1)C(=O)CCCC`, the inhibition result in assay [1] and in assay [2] was “Active” throughout. The inhibition result in assay [3] was “inactive”. The inhibition entry in assay [4] was “Dose-dependent effect”.
Take `O=C1/C(=C/c2ccc(-c3ccc(Br)cc3)o2)SC(=S)N1Cc1ccco1`: the inhibition result in assay [1] and in assay [2] was “Active” throughout. Besides, the inhibition entry in assay [3] was “inactive”. In addition, the inhibition result in assay [4] was “Dose-dependent effect”.
`CCc1ccc(NC2=NC(=O)/C(=C/c3cc(Cl)c(OCC(=O)O)c(Cl)c3)S2)cc1`: the inhibition entry in assay [1] and in assay [2] was “Active” throughout. In assay [3], the inhibition result was “inactive”. Besides, the inhibition result in assay [4] is “Dose-dependent effect”.
With `NC(=O)c1cc2cc(Br)ccc2o/c1=N\c1cc(C(F)(F)F)ccc1N1CCCCC1`, the inhibition entry in assay [1] and in assay [2] was “Active” throughout. The inhibition entry in assay [3] is “inactive”. The inhibition entry in assay [4] was “Dose-dependent effect”.
As to `O=C1C=C/C(=C\NNc2nc(-c3ccccc3)c(CC(=O)O)s2)C(O)=C1`, the inhibition result in assay [1] and in assay [2] was “Active” each time. Besides, the inhibition result in assay [3] is “inactive”. Moreover, in assay [4], the inhibition entry was “Dose-dependent effect”.
As for `O=C1N=C2C=CC(I)=CC2C1NNc1cccc2cccnc12` (centres undefined), the inhibition result in assay [1] and in assay [2] was “Active” throughout. Also, the inhibition entry in assay [3] is “inactive”. Further, in assay [4], the inhibition entry is “Dose-dependent effect”.
In the case of `O=C(C(c1ccccc1)c1ccccc1)N(CCc1csc2nc(-c3ccc4ccccc4c3)cn12)Cc1ccco1`, the inhibition entry in assay [1] and in assay [2] was “Active” throughout. Moreover, the inhibition entry in assay [3] is “inactive”. The inhibition entry in assay [4] is “Dose-dependent effect”.
In the case of `Clc1ccc(C2N=c3c(-c4ccco4)nnc(-c4nc5ccccc5s4)c3=N2)cc1` (centres undefined), the inhibition result in assay [1] and in assay [2] was “Active” each time. Also, in assay [3], the inhibition result is “inactive”. Besides, the inhibition entry in assay [4] is “Dose-dependent effect”.
Regarding `Nc1nc(SCc2nnc(Nc3ccccc3)s2)nc2sc3c(c12)CCC3`, the inhibition result in assay [1] and in assay [2] was “Active” throughout. For the same compound, the inhibition entry in assay [3] was “inactive”. The inhibition entry in assay [4] was “Dose-dependent effect”.
For the compound `O=C1S/C(=C/c2ccco2)C(=O)N1c1ccc(Cl)cc1`, the inhibition result in assay [1] and in assay [2] was “Active” each time. In addition, the inhibition entry in assay [3] was “inactive”. Further, the inhibition entry in assay [4] is “Dose-dependent effect”.
`O=C(NC(=S)Nc1ccc(-c2nc3ncccc3o2)cc1)c1ccc(Cl)cc1Cl`: the inhibition result in assay [1] and in assay [2] was “Active” in each case. For the same compound, the inhibition entry in assay [3] was “inactive”. Also, in assay [4], the inhibition entry is “Dose-dependent effect”.
Turning to `O=S(=O)(c1cccc2cccnc12)N(CCc1csc2nc(-c3ccc4ccccc4c3)cn12)Cc1ccco1`, the inhibition entry in assay [1] and in assay [2] was “Active” throughout. The inhibition entry in assay [3] was “inactive”. Also, in assay [4], the inhibition entry is “Dose-dependent effect”.
